Experimental findings from ChEMBL document CHEMBL3244203, “Absolute configuration of glycerol derivatives. 4. Synthesis and pharmacological activity of chiral 2-alkylaminomethylbenzodioxans, competitive alpha-adrenergic antagonists” (J Med Chem, 1977) are described below.

A short description of test [1]: Competitive antagonist activity at alpha-adrenergic receptor in New Zealand rabbit aorta assessed as inhibition of methoxamine-induced contraction incubated for 1 hr. Type of test: tissue-based, Oryctolagus cuniculus.
Test [2] deals with Adrenergic receptor alpha. Briefly: Displacement of [3H]dihydroazapetine from alpha-adrenoreceptor in rat vas deferens.

For the molecule `CCN(CC)C[C@H]1COc2ccccc2O1`, in test [1], the pA2 was found to be 5.6. In addition, the pKd in test [2] is 6.21.

As to `CCN(CC)C[C@@H]1COc2ccccc2O1`, the pA2 in test [1] stood at 5.26. Regarding `c1ccc2c(c1)OC[C@H](CN1CCCCC1)O2`, the pA2 in test [1] was found to be 7.12.

Take `c1ccc2c(c1)OC[C@@H](CN1CCCCC1)O2`: in test [1], the pA2 is given as 5.86. As to `c1ccc2c(c1)OC[C@H](CN1CCN(C[C@H]3COc4ccccc4O3)CC1)O2`, the pA2 in test [1] is 7.66. In addition, the pKd in test [2] is recorded as 6.85. For `c1ccc2c(c1)OC[C@@H](CN1CCN(C[C@@H]3COc4ccccc4O3)CC1)O2`, the pA2 in test [1] turned out to be 6.38. In addition, the pKd in test [2] stood at 6.25.

Consider `c1ccc2c(c1)OCC(CN1CCN(CC3COc4ccccc4O3)CC1)O2` (stereo not given), for which, in test [1], the pA2 was 7.53.
